Measured values published in ChEMBL document CHEMBL1148139, “Antiangiogenic activity of synthetic dihydrobenzofuran lignans” (J Nat Prod, 2002).
Activity calls are given as the source filed them. No cut-off for these calls is given here.

What was measured:
[1] = Toxicity to fertilized chicken eggs assessed as membrane irritating activity at 20 ug/pellet; set-up: species or system Gallus gallus; settings: in vivo, other
Gallus gallus [2] = species: Gallus gallus; experiment: Antiangiogenic activity in fertilized chicken eggs at 20 ug/pellet by CAM assay; type: functional; settings: Egg
Gallus gallus [3] = species: Gallus gallus; experiment: Antiangiogenic activity in fertilized chicken eggs at 5 ug/pellet by CAM assay; type: functional; settings: Egg

With COC(=O)/C=C/c1cc(O)c2c(c1)[C@@H](C(=O)OC)[C@H](c1ccc(O)c(O)c1)O2 the Activity [1] was 50%, the Activity (Gallus gallus [2]) was “Active” and the Activity (Gallus gallus [3]) was “Active”.
